Test [1] relates to oseltamivir-resistant strain 11v17178. The test can be described thus: Plaque assay in MDCK cells. The class given is cell-based, influenza A virus (H1N1 pandemic).
Test [2] has as its system oseltamivir-resistant strain 09v71923. The test can be described thus: Plaque assay in MDCK cells. Type of test: cell-based, influenza A virus (H1N1 pandemic).
Where [3] appears, read: day 3, vs DMSO vehicle, two concentrations.

As for `CCC(CC)O[C@@H]1C=C(C(=O)O)C[C@H](NCc2noc(-c3ccco3)n2)[C@H]1NC(C)=O` [Compound S7, (3R,4R,5S)-4-acetamido-5-(((5-(furan-2-yl)-1,2,4-oxadiazol-3-yl)methyl)amino)-3-(pentan-3-yloxy)cyclohex-1-ene-1-carboxylic acid], the plaque size result in test [1] (setting [3]) and in test [2] (setting [3]) was “No inhibition effect” throughout.
Turning to `CCC(CC)O[C@@H]1C=C(C(=O)O)C[C@H](NCc2ccc(-c3c(C)noc3C)o2)[C@H]1NC(C)=O` [Compound S22, (3R,4R,5S)-4-acetamido-5-(((5-(3,5-dimethylisoxazol-4-yl)furan-2-yl)methyl)amino)-3-(pentan-3-yloxy)cyclohex-1-ene-1-carboxylic acid], the plaque size result in test [1] (setting [3]) and in test [2] (setting [3]) was “No inhibition effect” each time.
On to `CCOC(=O)C1=C[C@@H](OC(CC)CC)[C@H](NC(C)=O)[C@@H](N)C1` [oseltamivir], for which the plaque size result in test [1] (0.1 nM oseltamivir, day 3) is reported as “significant reduction”; in test [2] (0.2 nM oseltamivir, day 3), “larger plaque size”; in test [2] (setting [3]), “could not reduce the plaque size”.

Source of the values: patent publication US12378208B2, “N-substituted oseltamivir derivatives with antimicrobial activity” (THE HONG KONG POLYTECHNIC UNIVERSITY, priority 2019, dated 2025).
